Marks after values point to notes of the source that are not given here.
settings: pH 2.3

Log P	Compound
2.61	COC(=O)C(C#N)=C(NC(C)c1nccs1)c1sccc1Cl (stereo not drawn) [Compound 18]
1.85	COC(=O)C(C#N)=C(NC(C)C#N)c1cccnc1Cl (stereo not drawn) [Compound 869]

same assay, conditions: pH 2.7

Log P	Compound
5.22^[a]	CCCCCCC(C)NC(=C(C#N)C(=O)OCC)c1sc(C)nc1C(F)(F)F (racemic) [Compound 818]
3.24^[a]	CCOC(=O)C(C#N)=C(NC(C)c1ccccn1)c1c(C(F)(F)F)nn(C)c1Cl (stereo not drawn) [Compound 314]
3.8^[a]	CCOC(=O)C(C#N)=C(NC(C)C1CC1)c1ncc(Cl)cc1Cl (stereo not drawn) [Compound 889]
1.63^[a]	CC(NC(=C(C#N)C(=O)N1CCOCC1)c1cn(C)nc1C(F)F)c1ccccn1 (stereo not drawn) [Compound 1328]
3.96^[a]	CCOC(=O)C(C#N)=C(NC(C)C(C)C)c1cnc(Cl)cc1Cl (stereo not drawn) [Compound 968]
3.99^[a]	CCOC(=O)C(C#N)=C(NC(C)c1cccs1)c1ccsc1Br (racemic) [Compound 250]
3.8^[a]	CCOC(=O)C(C#N)=C(NC(C)c1c(Cl)cccc1Cl)c1cccnc1Cl (stereo not drawn) [Compound 1649]
2.3^[a]	CCOC(=O)C(C#N)=C(NC(C)c1c(C)nn(C)c1C)c1cccnc1Cl (racemic) [Compound 277]
3.39^[a]	CCOC(=O)C(C#N)=C(NC1CCC1)c1ccnc(Cl)c1F [Compound 1321]
4.19^[a]	C=CCCCC(C=C)NC(=C(C#N)C(=O)OC)c1sc(C)nc1C(F)(F)F (stereo not drawn) [Compound 1019]
4.21^[a]	CCOC(=O)C(C#N)=C(NC(C)C(C)C)c1sccc1C(F)(F)F (stereo not drawn) [Compound 944]
3.17^[a]	CCOC(=O)C(C#N)=C(NC(C)c1ccccc1)c1cn(C)nc1C(F)F (mixture of isomers) [Compound 456]
3.92^[a]	CCOC(=O)C(C#N)=C(NC(C)C1CC1)c1cc(Cl)cc(Cl)n1 (racemic) [Compound 900]
3.64^[a]	COC(=O)C(C#N)=C(NC(C)c1ccc(F)cc1)c1sc(C)nc1C(F)(F)F (mixture of isomers) [Compound 442]
3.09^[a]	CCOC(=O)C(C#N)=C(Nc1ccc2ncsc2c1)c1sccc1Br [Compound 469]
5.11^[a]	CCOC(=O)C(C#N)=C(NC(c1cc2ccccc2s1)C(F)(F)F)c1nsc(Cl)c1Cl (stereo not drawn) [Compound 69]
1.9^[a]	CCOC(=O)C(C#N)=C(NC(C)C(N)=O)c1sccc1Cl (stereo not drawn) [Compound 644]
1.81^[a]	CC(NC(=C(C#N)C(=O)N(C)C)c1cn(C)nc1C(F)F)c1nccs1 (stereo not drawn) [Compound 1296]
3.85^[a]	CCOC(=O)C(C#N)=C(NC(C)C1CC1)c1ccnc(C(F)(F)F)c1Cl (stereo not drawn) [Compound 1622]

Log P	Compound
1.35^[a]	CCOC(=O)C(C#N)=C(NC(C)CN(C)C)c1sc(C)nc1C(F)(F)F (stereo not drawn) [Compound 640]
0.94^[a]	COC(=O)/C(C#N)=C(\NCC(C)N)c1sc(C)nc1C(F)(F)F (stereo not drawn) [Compound 631]
1.84^[a]	CCOC(=O)C(C#N)=C(NC1CCS(=O)(=O)C1)c1cccnc1Cl (stereo not drawn) [Compound 1369]
3.42^[a]	COC(=O)C(C#N)=C(NC1CC(C(F)(F)F)CC(C(F)(F)F)C1)c1cccnc1Cl (stereo not drawn) [Compound 1071]
2.45^[a]	CC(C)C(C)NC(=C(C#N)C(=O)N(C)C)c1cn(C)nc1C(F)F (stereo not drawn) [Compound 1286]
2.75^[a]	COCC(C)NC(=C(C#N)C(=O)OC)c1sc(C)nc1C(F)(F)F (racemic) [Compound 663]
3.87^[a]	CCOC(=O)C(C#N)=C(NC(C)CSc1ccc(Cl)cc1)c1cn(C)nc1C(F)F (stereo not drawn) [Compound 1234]
4.89^[a]	CCOC(=O)C(C#N)=C(NC(C)COc1c(C)cccc1C)c1sccc1C(F)(F)F (racemic) [Compound 654]
4.49^[a]	C=CCCCC(C=C)NC(=C(C#N)C(=O)OCC)c1sc(C)nc1C(F)(F)F (stereo not drawn) [Compound 1022]
4.18^[a]	CCOC(=O)C(C#N)=C(NC(C)C(C)C)c1ccnc(C(F)(F)F)c1Cl (stereo not drawn) [Compound 1627]
3.09^[a]	CCOC(=O)C(C#N)=C(NC(C(=O)OC)C(C)C)c1cn(C)nc1C(F)(F)F (stereo not drawn) [Compound 713]
2.77^[a]	CCCC(C#N)NC(=C(C#N)C(=O)OCC)c1cn(C)nc1C(F)F (racemic) [Compound 1250]
4.54^[a]	CCOC(=O)C(C#N)=C(Nc1ccccc1OC(C)C)c1sccc1C(F)(F)F [Compound 460]
4.54^[a]	CCOC(=O)C(C#N)=C(Nc1ccc(C(C)C)cc1)c1sc(C)nc1C(F)(F)F [Compound 494]
1.78^[a]	COC(=O)C(C#N)=C(NC(C)C(N)=O)c1sc(C)nc1C(F)(F)F (racemic) [Compound 668]
4.81^[a]	CCCCCC(C)NC(=C(C#N)C(=O)OCC)c1sc(C)nc1C(F)(F)F (stereo not drawn) [Compound 856]
2.61^[a]	CCOC(=O)C(C#N)=C(NCc1ccccn1)c1sccc1Br [Compound 99]
4.46^[a]	CCOC(=O)C(C#N)=C(NC(C)C(C)(C)C)c1sccc1C(F)(F)F (racemic) [Compound 919]
1.79^[a]	CC(NC(=C(C#N)C(=O)N1CCOCC1)c1cn(C)nc1C(F)F)c1nccs1 (stereo not drawn) [Compound 1327]

Compound	Log P
CCOC(=O)C(C#N)=C(NCc1ncc(C)s1)c1ccsc1Br [Compound 247]	3^[a]
CCOC(=O)C(C#N)=C(NC1COC1)c1cccnc1Cl [Compound 1356]	1.84^[a]
CCOC(=O)C(C#N)=C(NC(C)c1ccccn1)c1ccnc(C)c1Cl (racemic) [Compound 1243]	2.6^[a]
CCOC(=O)C(C#N)=C(NC(C)COc1ccc(F)cc1)c1cn(C)nc1C(F)F (stereo not drawn) [Compound 736]	3.42^[a]
CCOC(=O)C(C#N)=C(NC1CCC1)c1ccncc1C(F)(F)F [Compound 805]	3.6^[a]
CCOC(=O)C(C#N)=C(NC1CC1CC)c1cccnc1Cl (stereo not drawn) [Compound 1190]	3.23^[a]
CCSC(=O)C(C#N)=C(NC(C)c1nccs1)c1cccnc1Cl (stereo not drawn) [Compound 1489]	2.9^[a]
CCOC(=O)C(C#N)=C(NC(C)c1cc(C)ccn1)c1cccnc1Cl (stereo not drawn) [Compound 1442]	2.6^[a]
CCOC(=O)C(C#N)=C(NC(C)c1ccccn1)c1cn(C)nc1C (stereo not drawn) [Compound 1204]	1.99^[a]
CC(C)C(C)NC(=C(C#N)C(=O)NCCF)c1cccnc1Cl (stereo not drawn) [Compound 1593]	2.76^[a]
CCOC(=O)C(C#N)=C(NC(C)c1ncc(C)s1)c1sccc1C(F)(F)F (stereo not drawn) [Compound 216]	3.67^[a]
CCOC(=O)C(C#N)=C(NC(C)c1nccs1)c1cn(C)nc1C(F)(F)F (racemic) [Compound 63]	2.78^[a]
CCOC(=O)C(C#N)=C(NC(C)C1CC1)c1cccnc1C(F)(F)F (stereo not drawn) [Compound 892]	3.35^[a]
CC#CC(C)NC(=C(C#N)C(=O)OCC)c1cccnc1Cl (stereo not drawn) [Compound 1052]	2.86^[a]
CCNC(=O)C(C#N)=C(NC(C)C(C)C)c1cccnc1Cl (stereo not drawn) [Compound 958]	2.94
COC(=O)C(C#N)=C(NC(C)c1ccc(Cl)cc1)c1cccnc1Cl (stereo not drawn) [Compound 332]	3.24^[a]

same assay, conditions: pH 7.5

Compound	Log P
CCOC(=O)C(C#N)=C(NC(C)CCl)c1cccnc1Cl (stereo not drawn) [Compound 743]	2.7
COC(=O)C(C#N)=C(NC(C)c1nccs1)c1sccc1Cl (stereo not drawn) [Compound 18]	2.59
COC(=O)C(C#N)=C(NC(C)C#N)c1cccnc1Cl (stereo not drawn) [Compound 869]	1.86
CNC(=O)C(C#N)=C(NC(C)c1nccs1)c1cccnc1Cl (racemic) [Compound 269]	1.69

Source: patent publication US8476197B2, “Aminopropenoates as fungicides” (priority 2009, dated 2013)
